The values that follow come from patent publication US8147801B2, “Methods of using alpha-methylglucoside (AMG) as an indicator for glucose absorption and excretion” (Janssen Pharmaceutica, N.V., priority 2009, dated 2012).

Series [1] deals with T1, SGLT1 (Homo sapiens, UniProt P13866).
T1 sequence (P13866 1-664): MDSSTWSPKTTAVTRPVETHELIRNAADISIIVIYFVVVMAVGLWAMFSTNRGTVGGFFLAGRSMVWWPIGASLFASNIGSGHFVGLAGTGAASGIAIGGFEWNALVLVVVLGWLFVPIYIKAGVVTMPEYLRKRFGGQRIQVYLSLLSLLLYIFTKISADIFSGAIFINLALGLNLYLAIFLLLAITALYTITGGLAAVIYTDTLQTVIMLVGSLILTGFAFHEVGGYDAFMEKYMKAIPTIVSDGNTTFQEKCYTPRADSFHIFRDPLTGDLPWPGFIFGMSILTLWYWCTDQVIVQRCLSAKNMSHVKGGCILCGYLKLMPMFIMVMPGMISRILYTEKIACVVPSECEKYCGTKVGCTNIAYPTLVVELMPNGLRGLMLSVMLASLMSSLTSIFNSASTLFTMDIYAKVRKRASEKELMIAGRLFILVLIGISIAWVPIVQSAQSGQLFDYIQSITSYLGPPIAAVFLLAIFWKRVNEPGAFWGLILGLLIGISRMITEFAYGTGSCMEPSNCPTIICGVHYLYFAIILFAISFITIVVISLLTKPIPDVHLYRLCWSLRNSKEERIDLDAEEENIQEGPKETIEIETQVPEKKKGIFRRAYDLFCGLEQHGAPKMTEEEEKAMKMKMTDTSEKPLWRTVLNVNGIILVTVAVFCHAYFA
The series can be described thus: Cell-based 14C-AMG uptake inhibition assay, CHOK1 cells expressing human SGLT1. The conditions noted are these: CHOK1 cells stably expressing human SGLT1, 0.5 mM 14C-AMG, 30 min uptake; read-out: hSGLT1 (IC50, nM) [A]. Also on record: expressed in transfected cells. As to the method:
(§1) Inhibition of SGLT activity with Compound 1 and Compound 2 was assessed in CHOK1 cells stably expressing either human SGLT1 or human SGLT2. Compound 1 and Compound 2, are described in U.S. Patent Application Nos. 2005/0233988 and 2008/0027122, the contents of which are incorporated by reference in their entirety.
CHOK1 cells expressing human SGLT2 or human SGLT1 were seeded in 24-well plates at a density of approximately 400,000 cells/well in F-12 nutrient mixture (Ham's F-12) containing 10% fetal bovine serum, 400 ug/ml Geneticin, 50 units/ml sodium penicillin G (Gibco-BRL) and 50 ug/ml streptomycin sulfate. Cells were maintained in culture for 2 days at 37° C. in a humidified atmosphere containing 5% CO2. On the day of the assay, Compound 1 and Compound 2 were dissolved in DMSO and then diluted in assay buffer. The final concentration of DMSO was 0.5%. Assay buffer contained 137 mM NaCl, 5 mM KCl, 1 mM CaCl2, 1 mM MgCl2, 50 mM Hepes, and 20 mM Tris, pH 7.4. To start the assay, cells were washed once with the assay buffer and then incubated with 250 ul of the assay buffer containing Compound 1 or Compound 2 for 10 min at 37° C. […] Cells were then solubilized with 0.3 N NaOH and aliquots were taken for determination of radioactivity by a liquid scintillation counter. […] Specific uptake was normalized for the protein concentrations measured by the method of Bradford. […]

In series [2] the target is T2, SGLT2 (Homo sapiens, UniProt P31639).
T2 sequence (P31639 1-672): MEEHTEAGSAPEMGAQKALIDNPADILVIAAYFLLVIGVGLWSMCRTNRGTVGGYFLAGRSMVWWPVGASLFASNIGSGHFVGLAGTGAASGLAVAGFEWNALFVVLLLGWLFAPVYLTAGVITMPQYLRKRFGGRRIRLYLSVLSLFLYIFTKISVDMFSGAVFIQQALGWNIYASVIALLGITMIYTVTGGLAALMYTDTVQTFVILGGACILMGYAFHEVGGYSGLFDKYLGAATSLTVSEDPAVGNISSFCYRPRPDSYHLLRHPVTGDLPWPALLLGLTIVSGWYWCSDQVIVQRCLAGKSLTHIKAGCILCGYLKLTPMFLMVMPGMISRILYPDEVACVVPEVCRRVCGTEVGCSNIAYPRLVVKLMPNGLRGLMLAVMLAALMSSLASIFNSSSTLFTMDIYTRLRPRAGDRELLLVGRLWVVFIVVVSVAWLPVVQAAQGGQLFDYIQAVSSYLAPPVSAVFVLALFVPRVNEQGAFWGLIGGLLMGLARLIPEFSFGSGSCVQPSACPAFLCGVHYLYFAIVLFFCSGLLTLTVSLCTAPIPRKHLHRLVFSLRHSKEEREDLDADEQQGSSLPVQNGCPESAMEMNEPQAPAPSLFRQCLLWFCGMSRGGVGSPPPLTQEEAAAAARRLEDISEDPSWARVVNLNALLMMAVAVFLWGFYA
The series can be described thus: Cell-based 14C-AMG uptake inhibition assay, CHOK1 cells expressing human SGLT2. The note with it: for IC50: CHOK1 cells stably expressing human SGLT2, 0.5 mM 14C-AMG, 30 min uptake, read-out: hSGLT2 (IC50, nM) [B]; for [A]/[B] (fold): ratio hSGLT1 IC50 / hSGLT2 IC50. More on the design: expressed in transfected cells. As to the method: as §1
CHOK1 cells expressing human SGLT2 or human SGLT1 were seeded in 24-well plates at a density of approximately 400,000 cells/well in F-12 nutrient mixture (Ham's F-12) containing 10% fetal bovine serum, 400 ug/ml Geneticin, 50 units/ml sodium penicillin G (Gibco-BRL) and 50 ug/ml streptomycin sulfate. Cells were maintained in culture for 2 days at 37° C. in a humidified atmosphere containing 5% CO2. On the day of the assay, Compound 1 and Compound 2 were dissolved in DMSO and then diluted in assay buffer. The final concentration of DMSO was 0.5%. Assay buffer contained 137 mM NaCl, 5 mM KCl, 1 mM CaCl2, 1 mM MgCl2, 50 mM Hepes, and 20 mM Tris, pH 7.4. To start the assay, cells were washed once with the assay buffer and then incubated with 250 ul of the assay buffer containing Compound 1 or Compound 2 for 10 min at 37° C. The transport reaction was initiated by addition of 50 ul ^14C-AMG solution (final concentration, 0.5 mM ^14C-AMG). After incubation for 30 minutes at 37° C., the uptake was stopped by aspiration of the incubation mixture and the cells were washed three times with ice-cold PBS. Cells were then solubilized with 0.3 N NaOH and aliquots were taken for determination of radioactivity by a liquid scintillation counter. Nonspecific AMG uptake was defined as that which occurred in the presence of 100 uM of phlorizin, a specific inhibitor of sodium-dependent glucose cotransporter. Specific uptake was normalized for the protein concentrations measured by the method of Bradford. The 50% inhibitory concentration (IC50) values were calculated from dose-response curves by least square method.

Series [3] deals with Male Sprague-Dawley (SD) rats. The series can be described thus: Oral AMG test in rats: AMG measured by NMR in GI tract, plasma and urine after SGLT inhibitor dosing. The note with it: for AMG content retained in the GI system / amount of AMG detected in plasma / amount of AMG detected in the urine: rats, compound 0.3 or 3.0 mg/kg oral, AMG 2 g/kg oral 1 h later; for AMG content retained in the GI system: FIG. 1A; for amount of AMG detected in plasma: FIG. 1B; for amount of AMG detected in the urine: FIG. 1C. Format: in vivo, rat.
Protocol: Male Sprague-Dawley (SD) rats were dosed by oral gavage with either vehicle, 0.5% methylcellulose (methocel) in sterile water, or one of the SGLT inhibitors (Compound 1 and Compound 2) at 0.3 or 3.0 mg/kg. Compounds were administered as a suspension in 0.5% methylcellulose and sterile water. One hour after dosing the animals with the compounds, AMG was administrated orally via gavage (2 g/kg). AMG was dissolved in sterile water. Rats were sacrificed 120 or 240 minutes after AMG administration. Urine and plasma samples were collected and the entire gastrointestinal tract was removed and placed into saline. Subsequently, a GI lysate was made. Aliquots were taken from the samples of plasma, urine and the GI lysate and were extracted with acetonitrile to precipitate protein. […] The aqueous portion was dried down and re-suspended in deuterated water to a volume of 0.5 ml.
Proton NMR spectra were acquired on a Bruker DMX 600 MHz NMR spectrometer (Bruker Biospin Corporation, Billerica, Mass.) with the probe temperature maintained at 32° C. The mildly elevated temperature was used to enhance the chemical shift separation between the solvent peak (the residual water in the sample) and the anomeric proton of AMG (a doublet at 4.80 ppm) which was used for quantification. The solvent peak was saturated using very low power irradiation (a field strength of about 4 Hz) during the pre-pulse delay followed by a 30° pulse to acquire the signal. The pre-pulse delay was 3.0 s and the acquisition time was 2.1 s. The sweep width was 13 ppm using 32 k complex points. Before fourier transformation the data was apodized with 0.5 Hz exponential linebroadening. The amount of AMG present in the sample was determined relative to an internal reference, DSS (2,2-dimethyl-2-silapentane-d6-sulfonic acid, sodim salt) at 0.00 ppm.

Series [4] has as its system facilitated glucose transporters (GLUTs). The conditions noted are these: cited from earlier work.
The subject of series [5] is rodent models of diabetes and one canine diabetes model. The conditions noted are these: cited from earlier work.
The target of series [6] is T2, SGLT2. The conditions noted are these: literature value (Kanai et al. 1994; US 2008/0234367); cited from earlier work.
Series [7] addresses T1, SGLT1. The conditions noted are these: literature value (Kanai et al. 1994; US 2008/0234367); cited from earlier work.
[8] abbreviates: rodent models of diabetes and one canine diabetes model.

`OC[C@@H]1O[C@H](n2cc(Cc3ccc(C4CC4)cc3)c3c(F)cccc32)[C@@H](O)[C@H](O)[C@H]1O` [Compound 2]: the half-inhibitory concentration (IC50) on SGLT1 [1] is 270 nM. Also, on SGLT2 [2], the IC50 was 1.9 nM and the “[A]/[B] (fold)” value was 142 fold. Besides, in series [3], the “AMG content retained in the GI system” value is on record as “markedly increased at the higher dose”, the “amount of AMG detected in plasma” value is “dose-dependent decreases” and the “amount of AMG detected in the urine” value is “increased amount of AMG detected in the urine”.
For `O=C(CCc1ccc(O)cc1)c1c(O)cc(O)cc1O` [phloretin], the “inhibition of facilitated glucose transporters (GLUTs)” value in series [4] is “potent inhibitor”.
`CCc1ccc(Cc2cn([C@@H]3O[C@H](CO)[C@@H](O)[C@H](O)[C@H]3O)c3ccccc23)cc1` [Compound 1]: the IC50 on SGLT1 [1] stood at 1700 nM. Moreover, on SGLT2 [2], the concentration for half-maximal inhibition (IC50) was 8.4 nM and the “[A]/[B] (fold)” value was found to be 202 fold. For the same compound, in series [3], the “AMG content retained in the GI system” value is “did not cause a significant retention”, the “amount of AMG detected in plasma” value was “dose-dependent decreases” and the “amount of AMG detected in the urine” value is on record as “increase in the amount of AMG detected in the urine”.
As to `O=C(CCc1ccc(O)cc1)c1c(O)cc(O)cc1O[C@@H]1O[C@H](CO)[C@@H](O)[C@H](O)[C@H]1O` [phlorizin], in series [5] (setting [8]), the “fasting and fed plasma glucose levels” value is “lowered fasting and fed plasma glucose levels”; the glucose excretion result is given as “promoted glucose excretion”. Besides, in series [5] (treatment for as long as two weeks), the “adverse effects on plasma ion balance, renal function or renal morphology” value is “No adverse effects”.
Take `CO[C@H]1O[C@H](CO)[C@@H](O)[C@H](O)[C@H]1O` [AMG, Methyl-alpha-D-glucopyranoside]: the Km on SGLT2 [6] was 1600 µM; at SGLT1 [7], 400 µM. Further, in series [3] (AMG 2 g/kg oral gavage, vehicle treated rats, GI system, plasma and urine samples), the “absorption of oral AMG in vehicle treated rats” value was “absorbed from the GI system”.
